In paper PMC3960879 (Biology, 2013):

How the values were obtained:
Conditions in all cases: CFG glycan array version 2; F17G at 200 µg/mL; SEM in parentheses
F17fG lectin domain = test: CFG mammalian printed glycan array version 2 (experiment 400), F17fG; type: binding, Escherichia coli
Excerpt: (§1) The slide was dried under a stream of nitrogen.

F17bG lectin domain = F17bG lectin domain (Escherichia coli, UniProt Q47200)
Protocol: (§2) A microarray presenting 264 different glycans (mammalian printed array version 2) was used to evaluate if the F17G variant lectin domains differ in the range of glycan receptors that they recognize, thereby establishing tropism. The microarray was set up within the Consortium for Functional Glycomics (CFG) ([20], and supplemental data). Binding of F17G (200 µg/mL) was detected using anti-F17G polyclonal rabbit IgG (10 µg/mL), followed by fluorescently labelled goat anti-rabbit polyclonal antibodies (IgG-488, 5 µg/mL).
(§3) A microarray presenting 264 different glycans (mammalian printed array version 2 from the CFG, experiment 400) was used to evaluate whether the F17G variant lectin domains differ in the range of glycan receptors that they can recognize, thereby establishing strain-dependent tropism. […] The glycan array screening has been repeated for F17aG only on printed array version 4.1 (experiment 2053) (Figure 1).
(§4) Printed array version 2 at the Consortium for Functional Glycomics was used for glycan array screening of the variant F17G receptor binding domains. Slides were printed, with six replicates for each glycan, using glycan spotting concentrations of 100 μM, at the Consortium Carbohydrate Synthesis/Protein Expression Core D located at the Scripps Research Institute onto Schott Nexterion H slides (Schott Cat. No. 1070936B). Slide conditioning: preprinted slides were soaked in deionized water for 5 minutes at room temperature and dried under a stream of nitrogen. TSM buffer (20 mM Tris-HCl, pH 7.4, or MOPS 20 mM; 150 mM NaCl; 2 mM CaCl2, 2 mM MgCl2) was used as wash buffer (TSM buffer + 0.05% Tween 20) or binding buffer (TSM buffer + 0.05% Tween 20 + 1% BSA). (1) F17G was diluted to 200 μg/mL (Figure 1) in TSM binding buffer. (2) 50 μL of F17G was applied to the printed surface and coverslipped. (3) The slide was incubated, protected from light, in a humidified chamber for 1 hour at RT. (4) The slide was washed once in TSM wash buffer. 50 μL of the anti-F17G (10 μg/mL) polyclonal rabbit IgG were applied, coverslipped and incubated for 1 h at RT. (5) The slide was washed once in TSM wash buffer. Fifty μL of fluorescently labelled secondary goat anti-rabbit polyclonal antibodies (IgG-488, 5 µg/mL) were applied, coverslipped and incubated for 1 h at RT. (6) Slide was removed, followed by the coverslip, and washed for 10 s each in TSM wash buffer, TSM wash buffer lacking Tween 20, and deionized water. The slide was dried under a stream of nitrogen. (7) The binding image was read in a Perkin Elmer Microscanarray XL4000 scanner and tiff file of image stored. (8) Image analysis was performed using Imagene (V.6) image analysis software. (9) Raw data results files were generated in Excel format and uploaded to the Consortium database as .dat files. (10) Imagene data was uploaded to the database as .txt files.

F17aG lectin domain = F17aG lectin domain (Escherichia coli, UniProt Q99003)
F17aG lectin domain, sequence (Q99003 23-199): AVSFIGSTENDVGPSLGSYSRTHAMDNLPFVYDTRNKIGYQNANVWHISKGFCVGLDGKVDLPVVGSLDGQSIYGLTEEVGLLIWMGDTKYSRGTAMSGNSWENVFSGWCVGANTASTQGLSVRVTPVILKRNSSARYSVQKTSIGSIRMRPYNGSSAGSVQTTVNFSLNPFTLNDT
Protocol: as §2, §3, §4

F17dG lectin domain = F17dG lectin domain (Escherichia coli, UniProt Q47199)
F17dG lectin domain, sequence (Q47199 23-199): as the sequence (Q99003 23-199) above, with L16P, D33N, R35G, K37N, H47R, K90N counted along it
Protocol: as §2, §3, §4

F17eG lectin domain = test: CFG mammalian printed glycan array version 2 (experiment 400), F17eG; type: binding, Escherichia coli
Excerpt: as §1

F17bG lectin domain, sequence (Q47200 23-199): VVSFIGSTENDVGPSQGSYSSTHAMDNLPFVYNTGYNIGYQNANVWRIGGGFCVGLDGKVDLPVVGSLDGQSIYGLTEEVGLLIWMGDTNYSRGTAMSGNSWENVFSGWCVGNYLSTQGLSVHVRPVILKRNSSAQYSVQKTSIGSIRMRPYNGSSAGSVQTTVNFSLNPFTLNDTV

| Molecule | Relative Fluorescence Units (RFU), averaged over six replicates, F17fG (F17fG lectin domain) | Relative Fluorescence Units (RFU), averaged over six replicates, F17bG (F17bG lectin domain) | Relative Fluorescence Units (RFU), averaged over six replicates, F17aG (F17aG lectin domain) | Relative Fluorescence Units (RFU), averaged over six replicates, F17dG (F17dG lectin domain) | Relative Fluorescence Units (RFU), averaged over six replicates, F17eG (F17eG lectin domain) |
| --- | --- | --- | --- | --- | --- |
| CC(=O)N[C@H]1[C@H](O[C@H]2[C@@H](O)[C@@H](CO)O[C@H](OCCCN)[C@@H]2NC(C)=O)O[C@H](CO)[C@@H](O)[C@@H]1O [GlcNAcβ1,3GalNAcα-Sp8] | 10,999 (2,929) RFU | 15,182 (2,925) RFU | 25,971 (3,174) RFU | 6,635 (2,735) RFU | 33,330 (7,321) RFU |
| CC(=O)N[C@H]1[C@H](O[C@H]2[C@@H](O)[C@@H](CO)O[C@@H](OCCCN)[C@@H]2O)O[C@H](CO)[C@@H](O)[C@@H]1O [GlcNAcβ1,3Galβ-Sp8] | 27,648 (1,137) RFU | 16,310 (1,907) RFU | 32,288 (4,175) RFU | 16,277 (9,959) RFU | 38,836 (5,631) RFU |
| CC(=O)N[C@H]1[C@H](OCCCN)O[C@H](CO)[C@@H](O[C@@H]2O[C@H](CO)[C@@H](O[C@@H]3O[C@H](CO)[C@@H](O)[C@H](O)[C@H]3NC(C)=O)[C@H](O)[C@H]2NC(C)=O)[C@@H]1O [GlcNAcβ1,4GlcNAcβ1,4GlcNAcβ-Sp8] | 2,418 (613) RFU | 2,860 (706) RFU | 848 (88) RFU | 1,690 (251) RFU | 5,689 (1,085) RFU |
| CC(=O)N[C@H]1[C@H](OCCN)O[C@H](CO)[C@@H](O)[C@@H]1O [GlcNAcβ-Sp0] | 5,354 (1,572) RFU | 14,972 (2,705) RFU | 15,621 (2,697) RFU | 3,377 (643) RFU | 34,825 (6,475) RFU |
| CC(=O)N[C@H]1[C@H](OCCCN)O[C@H](CO)[C@@H](O)[C@@H]1O [GlcNAcβ-Sp8] | 10,738 (2,670) RFU | 12,289 (1,168) RFU | 22,909 (3,087) RFU | 2,514 (365) RFU | 31,863 (4,615) RFU |
| NCCCO[C@@H]1O[C@H](CO)[C@@H](O)[C@H](O)[C@H]1N [GlcNH2β-Sp8] | 1,385 (464) RFU | 7,281 (1,506) RFU | 554 (117) RFU | 1,950 (1,358) RFU | 548 (256) RFU |
| (GlcNAcβ1,3(GlcNAcβ1,6)GlcNAcβ1,4)GlcNAc-Sp8 | 2,992 (992) RFU | 6,148 (1,367) RFU | 20,305 (2,023) RFU | 8,080 (1,518) RFU | 50,775 (6,375) RFU |
| Galβ1,4GlcNAcβ1,3Galβ1,4Glcβ-Sp0 | 663 (146) RFU | 1,090 (262) RFU | 391 (24) RFU | 919 (375) RFU | 3,942 (857) RFU |
| Galβ1,4GlcNAcβ-Sp0 | 1,279 (106) RFU | 1,974 (289) RFU | 1,703 (1,070) RFU | 249 (94) RFU | 19,659 (4,594) RFU |
